Experimental data as given in article PMC12406203 (Journal of Medicinal Chemistry, 2025).
Several values for one entry are separate records, joined by “and”; a condition that tells them apart may be missing. Equal values may be shown once.

Key:
[1] = in vitro; settings: PAMPA, pH 7.4
[2] = test system: MET
[3] = test system: PIK3C2B
[4] = test system: SRPK3
[5] = test system: TYK2(JH1domain-catalytic)
[6] = test system: PLK3
[7] = test system: NLK
[8] = test system: VEGFR2
[9] = test system: hAChE
[10] = test system: ABL1(E255K)-phosphorylated
[11] = test system: INSR
[12] = test system: CDK9
[13] = molecular target: hAChE (Homo sapiens, UniProt P22303); settings: for AChE inhibition: at a concentration of 100 μM; for hAChE RA at 100 μM: residual activity at 100 μM, mean ± SD, one experiment in triplicate
hAChE (Homo sapiens, UniProt P22303), sequence (P22303 32-614): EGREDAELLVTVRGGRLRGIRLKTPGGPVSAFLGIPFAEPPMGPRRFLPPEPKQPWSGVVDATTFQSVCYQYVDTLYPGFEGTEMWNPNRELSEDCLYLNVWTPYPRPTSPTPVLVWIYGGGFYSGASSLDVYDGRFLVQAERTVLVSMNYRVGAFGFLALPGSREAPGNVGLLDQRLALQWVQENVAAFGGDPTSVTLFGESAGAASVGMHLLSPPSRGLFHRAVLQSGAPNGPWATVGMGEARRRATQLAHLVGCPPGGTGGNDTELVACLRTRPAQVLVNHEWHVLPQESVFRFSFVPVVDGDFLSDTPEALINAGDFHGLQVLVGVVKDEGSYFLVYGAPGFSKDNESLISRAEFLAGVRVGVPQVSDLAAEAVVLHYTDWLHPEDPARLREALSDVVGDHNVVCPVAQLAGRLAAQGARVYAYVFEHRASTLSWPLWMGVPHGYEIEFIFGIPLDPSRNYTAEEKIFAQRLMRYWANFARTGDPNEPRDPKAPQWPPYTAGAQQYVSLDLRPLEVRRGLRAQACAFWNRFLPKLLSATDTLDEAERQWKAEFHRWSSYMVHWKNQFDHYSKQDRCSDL

Work on `CN(C)CCNC(=O)c1cc2c(cnn2CC2CCCCC2)cc1Cc1ccc(F)cc1F` [Compound 95, 1-(Cyclohexylmethyl)-5-(2,4-difluorobenzyl)-N-(2-(dimethylamino)ethyl)-1H-indazole-6-carboxamide] yielded a Papp [1] of 13.2 ×10⁻⁶ cm/s, an RA @ 1000nM [2] of 100% and an RA @ 10000nM [2] of 100%. The RA @ 1000nM [3] was 91%, the RA @ 10000nM [3] was 91% and the RA @ 1000nM [4] was 92%. For the same compound, the RA @ 10000nM [4] was 99%, the RA @ 1000nM [5] was 89% and the RA @ 10000nM [5] was 75%. The RA @ 1000nM [6] was 88%, the RA @ 10000nM [6] was 100% and the RA @ 1000nM [7] was 100%. The RA @ 10000nM [7] was 100%, the RA @ 1000nM [8] was 100% and the RA @ 10000nM [8] was 100%. The “RA at 100 µM” value [9] was 53.4 ± 0.8%, the RA @ 1000nM [10] was 96% and the RA @ 10000nM [10] was 93%. The RA @ 1000nM [11] was 84%, the RA @ 10000nM [11] was 81% and the RA @ 1000nM [12] was 100%. For the same compound, the RA @ 10000nM [12] was 93%, the AChE inhibition [13] was “did not inhibit AChE” and the “hAChE RA at 100 μM” value [13] was 53.4% and 53 ± 1% and 53.4 ± 0.8%.
For `CC(C)Cn1ncc2cc(Cc3ccc(F)cc3F)c(C(=O)NCCN(C)C)cc21` [Compound 94, 5-(2,4-Difluorobenzyl)-N-(2-(dimethylamino)ethyl)-1-isobutyl-1H-indazole-6-carboxamide], the Papp [1] was 10.4 ×10⁻⁶ cm/s, the RA @ 1000nM [2] was 96% and the RA @ 10000nM [2] was 100%. For the same compound, the RA @ 1000nM [3] was 90%, the RA @ 10000nM [3] was 82% and the RA @ 1000nM [4] was 77%. It also gave an RA @ 10000nM [4] of 100%, an RA @ 1000nM [5] of 78% and an RA @ 10000nM [5] of 79%. It also gave an RA @ 1000nM [6] of 100%, an RA @ 10000nM [6] of 97% and an RA @ 1000nM [7] of 100%. It also gave an RA @ 10000nM [7] of 98%, an RA @ 1000nM [8] of 100% and an RA @ 10000nM [8] of 100%. For the same compound, the RA @ 1000nM [10] was 96%, the RA @ 10000nM [10] was 55% and the RA @ 1000nM [11] was 81%. For the same compound, the RA @ 10000nM [11] was 90%, the RA @ 1000nM [12] was 100% and the RA @ 10000nM [12] was 100%. The AChE inhibition [13] was “did not inhibit AChE” and the “hAChE RA at 100 μM” value [13] was 69.0% and 69 ± 4%.
